Reference: patent US6376175B1, “Methods of discovering chemicals capable of functioning as gene expression modulators” (OSI Pharmaceuticals, Inc., priority 1989, dated 2002)

Legend:
[1] = system: G-CSF promoter; assay: G-CSF promoter-luciferase induction by known inducers, clone G 1002 (5637 cells); type: cell-based, human
Source text: Cloning of G-CSF sequences is described in Experimental Details, section B-3. In order to correctly fuse the G-CSF upstream sequences to the luciferase start codon, oligonucleotides were synthesized which contain the G-CSF leader sequence from +15 to the ATG (32), and were cloned into pUC19 to create pGUC84 (FIG. 29). […] The G-CSF-oligonucleotide-containing NcoI/ScaI fragment from pGUC84 was then isolated and ligated to the luciferase-containing NcoI/ScaI fragment from pUV100 to create pGUV100 (FIG. 30). Following this, the PstI fragment of the G-CSF promoter was isolated form pJM710 (FIG. 7) and inserted into the PstI site in pGUV100 generating pGUV1(FIG. 31). The rest of the G-CSF promoter clone was added by ligating the G-CSF-luciferase containing SfiI/ScaI fragment from pGUV1 to the appropriate SfiI/ScaI fragment from pJM710, creating the plasmid pGUV2 (FIG. 32). The XbaI fragment from pGUV2 containing the G-CSF-luciferase fusion was then cloned into pUV103 previously digested with XbaI/SpeI, generating pGUV140 (FIG. 33). Finally, a TK-Neo cassette (Section C) was included by ligating the ScaI/XbaI fragment from pGUV140 which contains the G-CSF-luciferase fusion into pTKNEO103 previously digested with ScaI/XbaI, yielding the final vector pGUV150 (FIG. 34).
All the following constructs were transfected into 5637 bladder carcinoma cells either by electroporation using a BRL (Gaithersburg, Md.) Cellporator electroporation device or by lipofection using BRL lipofectin and following the manufacturer's protocol. For electroporation, cells were trypsinized, treated with Soybean trypsin inhibitor (1 mg/ml), washed three times in Dulbecco's modified Eagle's medium (DMEM) without pH indicator, and 1 ml of cell suspension in DMEM was electroporated at room temperature and at a cell density of 5 million cells per ml at a voltage of 250 V and a capacitance of 1180 microFarad with the electroporation device set at low resistance. In previous experiments these parameters had been determined to result in optimal electroporation efficiency. About 15 min after electroporation cells were recovered from the disposable electroporation containers (BRL, Gaithersburg, Md.) and plated in RPMI containing 10% fetal calf serum. 2 days after electroporation 0.4 mg/ml G 418 were added and clonal cell colonies were picked 14-20 days after transfection. Clones were first analysed for luciferase expression using Lysis Buffer 1 without bovine serum albumin (see Section F) and those testing positive expanded further and frozen in liquid nitrogen. Further analysis of 6 clones (G 1002, G 2005, G 2071, G 2085, G 3014, G3031) included Southern blotting, reaction to known inducers, satisfactory attachment to microtiter plates and acceptable standard deviation in multiple luciferase expression assays. Clones G 2005 and G 2085 were derived from 5637 cells lipofected with 100 ug/ml of linearized pGVU150 (FIG. 34), G 3031 descends from cells electroporated with 100 ug/ml of linearized pGVU150, whereas 200 ug/ml of the same plasmid were used to generate G 3014. Cotransfection of circular pGVU140 (FIG. 33) with circular pTKNeo3 (FIG. 19) was used to generate clones G 1002 and G 2071. While G 1002 resulted from co-electroporation of 50 and 5 ug/ml of the two plasmids, G 2071 descends from cells lipofected with 100 and 10 ug.
Cell clones with correctly integrated promoter/reporter constructs were analysed for correct reaction to known transcriptional inducers. […] Both TNF-alpha- and PMA-induction levels of clone G 1002 were influenced by the presence or absence of epidermal growth factor (EGF). […] The 9.3fold induction by PMA in the absence of EGF was reduced to 5.6fold by including EGF in the serum-free incubation mixture. Similar differences were observed, when EGF was substituted by 10% fetal calf serum.

[2] = system: GM-CSF promoter; assay: GM-CSF promoter-luciferase induction by known inducers, clones GM 1073, GM 1088, GM 1105; type: cell-based, human; conditions: for luciferase expression induction, clone 1088: GM-CSF reporter clone GM 1088; for luciferase expression induction, clone 1105: GM-CSF reporter clone GM 1105
Method: All routine subcloning procedures were performed as described by Maniatis et al. (1982), (28) unless otherwise noted. The about 0.7 kb HindIII/RsaI fragment of the GM-CSF clone (FIG. 20) was inserted into pUC 18 previously digested with HindIII/HincII. The about 0.7 kb HindIII/SmaI fragment was then isolated from the resulting vector and cloned into pUV 100 digested previously with HindIII/SnaBI, thereby generating pGMLUCI (FIG. 22.) In order to correctly fuse the GM-CSF ATG with the coding region of luciferase, four oligonucleotides (FIG. 21) were synthesized, phosphorylated, annealed, ligated, and inserted into pUC19 previously digested with Eco RI/XbaI, generating pGM-1 (FIG. 22). pGM-1 was then sequences (Sequenase Kit, US Biochemicals, Cleveland, Ohio) using the M13 forward (U.S. Biochem.) and reverse primers (Pharmacia, Piscataway, N.J.) to ensure that there were no mutations in the synthesized oligonucleotides. The about 1.8 kb BstEII/ScaI fragment from pGM-1 was then isolated and ligated to about 1.5 kb BstEII/ScaI fragment from pGMLUCI to generate pGM-2 (FIG. 22). pGM-2 was then digested with Hind III/XbaI and about 0.7 kb fragment was cloned into pUV 102 and pUV 103 previously digested with HindIII/XbaI. This generated pGMLS102 and pGMLS103 (FIG. 22), which contain 663 bp of GM-CSF sequence 5′ of the ATG fused directly to the second (correct) ATG of luciferase and the rest of the luciferase coding region. An additional about 1.4 kb of upstream sequences were cloned into this construct by isolating the about 1.4 kb SalI/HindIII fragment from the GM-CSF clone (FIG. 20), blunting the SalI end by filling in with Klenow polymerase, and inserting the fragment into pGMLS102 and pGMSL103 previously digested with HindIII/SnaBI. This step generated pGMLL102 and PGMLL103, respectively (FIG. 23). Finally, the pTKNEO2 and PTKNEO3 about 1.8 kb SfiI fragments were cloned directly into the SfiI site of pGMLL103 to generated pGMLL103 NEO2 and pGMLL103 NEO3.
6 clones generated by electroporation with pGMLL103 NEO3 (FIG. 23; Materials and Methods, section D.2) were subjected to further analysis as described above: GM 1073 (10 ug; circular); GM 1081, 1088 and 1090 (5 ug; linear); and GM 1098 and 1105 (10 ug; linear).
Promoter induction experiments were also conducted with the GM-CSF reporter cell lines GM 1073, GM 1088 and GM 1105, which were all shown to contain correctly inserted constructs (see above). […] Luciferase expression of clones 1088 and 1105 was induced by PMA 2.8 fold and 2 fold, respectively, while TNF-alpha induced both clones 2 fold.

[3] = 7-hour incubation, serum-free defined media with 20 ng/ml EGF
[4] = 7-hour incubation, serum-free defined media, absence of EGF
[5] = 10.5 hours, serum-containing media, 8.3 ng/ml TNF-alpha, 20 ng/ml PMA, 0.5 ng/ml Interleukin-1 beta, or mixtures as labelled

Row | Compound | G-CSF promoter induction, clone G 1002 [1, 3] | G-CSF promoter induction, clone G 1002 [1, 4] | G-CSF promoter induction, clone G 1002 [1, 5] | luciferase expression induction, clone 1088 [2] | luciferase expression induction, clone 1105 [2] | GM-CSF promoter induction, GM 1073 cells ([2]; 10.5 hours, 20 ng/ml PMA, serum-containing media) | GM-CSF promoter induction, GM 1073 cells ([2]; PMA, serum-free media)
1 | TNF-alpha | 3 fold | 4 fold | 2 fold | 2 fold | 2 fold |  | 
2 | CCCCCCCCCCCCCC(=O)O[C@@H]1[C@@H](C)[C@@]2(O)[C@@H](C=C(CO)C[C@]3(O)C(=O)C(C)=C[C@@H]23)[C@@H]2C(C)(C)[C@]12OC(C)=O [PMA, phorbo-myristate-acetate, reference compound] | 5.6 fold | 9.3 fold | 4.4 fold | 2.8 fold | 2 fold | 3.4 fold | 7.5 fold
